1 molecule from patent US9453242B2, “Method and culture medium for preparing mammalian ovum or embryo in which zona pellucida has been thinned or eliminated, and method for fertilization using mammalian ovum prepared by same method” (NATIONAL UNIVERISTY CORPORATION KUMAMOTO UNIVERSITY, priority 2010, dated 2016) can be followed below.

Structures are written as SMILES. Where two headings read alike, the source gives them in different places.

Data set [1] has as its system 2-cell stage embryos transplanted into female mice. The conditions noted are these: fertilization and incubation in HTF with 1 mM glutathione; frozen C57BL/6J sperms.
Source text: As the receptive female, ICR mice are used, and on the day before transplantation, external genitals are observed and those in the proestrus stage are selected and allowed to live together with vasoligated males. On the following day, those showing vaginal plug are used as the receptive female (on day 1 of pseudopregnancy). The skin and abdominal wall of the anesthetized receptive female are incised, and part of ovary, oviduct and uterus is exposed to the outside of the body through the incised portion, and fat adhered to ovary is fixed by a clamp. A 200 μl drop for transplantation is produced at the center of a dish, and embryos to be transplanted (20/individual) are transferred into the drop for transplantation. Next, 10 embryos are sucked together with a small amount of an incubation solution into a transplantation capillary. About ½ to ⅔ of the circumference of oviduct is incised, and the capillary containing embryos is inserted through the incised portion toward ampulla of oviduct and embryos are transplanted. Also into the opposite oviduct, embryos are transplanted by the same operation procedure.
The offspring rate (implanting rate) after embryo transplantation is determined according to the following formula. Offspring development rate (%)=(number of offspring)/(number of transplanted embryo)×100 […]
Data set [2] has as its system zona pellucida-eliminated ovum. The following applies: frozen C57BL/6 sperms.
For data set [3], the system named is mouse frozen unfertilized ovums. The procedure:
According to an ordinary method, mouse frozen unfertilized ovums were prepared using 8-week old female mice.

The test system of data set [4] is zona pellucida of a mouse unfertilized ovum. The experiment in a line: Swelling of zona pellucida (area in zona pellucida) of unfertilized ovum. The class given is cell-based. The following applies: 37° C., 6 hours. As to the method:
Further, the influence of glutathione on swelling of zona pellucida was confirmed. […] Preparation of ovum” were treated with HTF culture media containing glutathione at various concentration at 37° C. for 6 hours, then, the area in zona pellucida was photographed under a microscope and measured by an image analysis software. The conditions of zona pellucida at glutathione concentrations of 0 mM, 1 mM, 2 mM and 10 mM were observed by an invert microscope.
The influence of other reducing agents (DTT, ascorbic acid (VC) and epicatechin (EC)) exerted on thinning and swelling of zona pellucida was confirmed in the same manner as in Example 2. The extent of swelling of the zona pellucida of an unfertilized ovum by the concentration of each reducing agent was photographed under a microscope, and determined according to the following formula. % Relative area in ZP=(area of zona pellucida in each experiment/area of zona pellucida at 0 mM)×100

The procedure of data set [5]:
Mouse fresh unfertilized ovums in which cumulus cells had been removed prepared according to the above-described “1. Preparation of oocyte” were prepared, then, 10 μl of an HTF culture medium containing glutathione at various concentrations (5, 10, 25, 50, 100, 200 and 300 mM) was dropped onto the bottom of a petri dish, and 20 ovums were inserted into this, and the time until elimination of zona pellucida was measured.

[6] abbreviates: freeze-thawed ovums, zona pellucida eliminated with 100 mM glutathione.

The molecule `N[C@@H](CCC(=O)N[C@@H](CS)C(=O)NCC(=O)O)C(=O)O` [glutathione, reduced glutathione] showed an offspring development rate in data set [1] of 53.8%. Moreover, the “offspring development rate (offspring/transplanted embryos)” value in data set [1] is reported as 43/80. Besides, the “fertilization and development of zona pellucida-eliminated ovum” value in data set [2] (glutathione 100 mM pre-treatment) is “fertilization occurred and the development of an ovum (ovum division) was confirmed”. Also, the “embryos developed to the blastocyst stage” value in data set [2] (of 70 zona pellucida-eliminated embryos (glutathione 100 mM)) was 66. The fertilization rate in data set [3] (setting [6]) is 25%. The “fertilization rate (fertilized/total)” value in data set [3] (setting [6]) is 125/492. In addition, the “condition of zona pellucida of freeze-thawed unfertilized ovum” value in data set [3] (glutathione 100 mM, 20° C., 90 seconds) is given as “the zona pellucida of a freeze-thawed unfertilized ovum was eliminated”. Moreover, the “glutathione concentration at which swelling of zona pellucida was recognized remarkably” value in data set [4] was at least 2 mM. For the same molecule, the “swelling of zona pellucida” value in data set [4] (HTF with glutathione at various concentration) is on record as “swelling of zona pellucida was confirmed depending on the glutathione concentration”. In addition, the pH in data set [5] (HTF culture medium with glutathione 5 mM) is given as 7.3; in data set [5] (HTF culture medium with glutathione 10 mM), 7.4; in data set [5] (HTF culture medium with glutathione 25 mM) it was 6.1; in data set [5] (HTF culture medium with glutathione 50 mM) it was 4.0; in data set [5] (HTF culture medium with glutathione 100 mM), 3.5; in data set [5] (HTF culture medium with glutathione 200 mM), 3.1. The pH in data set [5] (HTF culture medium with glutathione 300 mM) worked out at 3.1.
